Data taken from US9040707B2, “Bicyclic thiazoles as allosteric modulators of mGluR5 receptors” (Janssen Pharmaceutica NV, priority 2009, dated 2015).

Columns and labels:
human mGluR5 receptor = biological target: T1, human mGluR5 receptor (Homo sapiens, UniProt P41594); assay: Functional Assay 1: intracellular Ca2+ mobilization, positive allosteric modulation of glutamate EC20 response; format: cell-based; conditions: for Emax: maximum % effect relative to glutamate ECMax
T1 construct: expressed in transfected cells; host or cells: HEK-293
Description: HEK-293 cells were stable transfected with human mGluR5a cDNA in expression vector pcDNA4/TO. For Assay 1, these human mGluR5 receptor over-expressing HEK-293 cells were grown at a density of 40,000 cells/well in PDL-coated 384-well plates. The following day, cells were preloaded with the calcium-sensing dye Fluo-4 AM and various concentrations of test compound were added in the absence of exogenous glutamate to test for direct agonist activity. Shortly (2.5 min) thereafter, an EC20 equivalent of glutamate (˜0.2 μM) was added. The fluorescence signal was monitored using a Hamamatsu Functional Drug Screening System (FDSS) fluorescence plate reader following the addition of compound alone (direct agonist response) and then the further addition of an EC20 of glutamate (positive allosteric modulation response). The pEC50 was defined as the negative log of the test compound concentration which produced an increase in the glutamate EC20-mediated response that was 50% of maximum. Individual amplitudes were expressed as % effect by multiplying each amplitude by 100 and then dividing the product by the mean of the amplitudes derived from the glutamate ECMax-treated wells. Emax values reported in this application are defined as the maximum % effect obtained in a concentration-response curve.

human mGluR5a receptor = biological target: T2, human mGluR5a receptor (Homo sapiens, UniProt P41594); assay: Functional Assay 2: Ca2+ mobilization, HEK cells with human mGluR5a receptor (H10H cell line); format: cell-based; conditions: H10H cell line; for EC50: glutamate EC20; for Emax: HEK293, maximum average response at a single concentration, relative to glutamate ECMax
T2 construct: host or cells: HEK293A (monoclones H10H and H12H)
Description: Human mGluR5a cDNA in pCMV6-XL6 mammalian expression plasmid was purchased from OriGene Technologies, Inc. (catalogue number SC326357) and subcloned into pcDNA3.1(−). […] Monoclones were named for the species (“H” for human) plus the location on the plate (e.g. “10H”).
The following day, the growth medium was removed and the cells were washed with assay buffer containing 1× Hank's balanced salt solution (Invitrogen, Carlsbad, Calif.), 20 mM HEPES, 2.5 mM probenecid, pH 7.4 and left with 20 μL of this reagent. Following this step, the cells were loaded with calcium indicator dye, fluo-4 AM, to a final concentration of 2 μM and incubated for 40-45 min at 37° C. The dye solution was removed and replaced with assay buffer. Cell plates were held for 10-15 min at room temperature and were then loaded into the Functional Drug Screening System 6000 (FDSS 6000, Hamamatsu, Japan).
After establishment of a fluorescence baseline for about 3 seconds, the compounds of the present invention were added to the cells, and the response in cells was measured. 2.3 minutes later an EC20 concentration of the mGluR5 receptor agonist glutamate was added to the cells, and the response of the cells was measured for about 1.7 minutes. All test compounds were dissolved and diluted to a concentration of 10 mM in 100% DMSO and then serially diluted into assay buffer for a 2× stock solution in 0.6% DMSO; stock compounds were then added to the assay for a final DMSO concentration of 0.3% after the first addition to the assay well. Calcium fluorescence measures were recorded as fold over basal fluorescence; raw data was then normalized to the maximal response to glutamate.
The concentration-response curves of compounds of the present invention, obtained in the presence of EC20 of mGluR5 receptor agonist glutamate to determine positive allosteric modulation, were generated using Microsoft Excel with IDBS XLfit add-ins. The raw data file containing all time points was used as the data source in the analysis template. This was saved by the FDSS as a tab-delimitted text file. Data were normalized using a static ratio function (F/F0) for each measurement of the total 350 values per well divided by each well's initial value. […] This is sufficient time to capture the peak amplitude of the cellular calcium response. […] Each of the three values collected at each concentration of test compound were weighted evenly. […] These two methods are in good agreement for curves with a clear plateau at the high concentration range.

[1] = human mGluR5 over-expressing HEK-293 cells, glutamate EC20 (~0.2 μM), updated value
[2] = original value, which was updated as compound was further tested

T1 sequence (P41594 21-1180 isoform P41594-2 limits assumed): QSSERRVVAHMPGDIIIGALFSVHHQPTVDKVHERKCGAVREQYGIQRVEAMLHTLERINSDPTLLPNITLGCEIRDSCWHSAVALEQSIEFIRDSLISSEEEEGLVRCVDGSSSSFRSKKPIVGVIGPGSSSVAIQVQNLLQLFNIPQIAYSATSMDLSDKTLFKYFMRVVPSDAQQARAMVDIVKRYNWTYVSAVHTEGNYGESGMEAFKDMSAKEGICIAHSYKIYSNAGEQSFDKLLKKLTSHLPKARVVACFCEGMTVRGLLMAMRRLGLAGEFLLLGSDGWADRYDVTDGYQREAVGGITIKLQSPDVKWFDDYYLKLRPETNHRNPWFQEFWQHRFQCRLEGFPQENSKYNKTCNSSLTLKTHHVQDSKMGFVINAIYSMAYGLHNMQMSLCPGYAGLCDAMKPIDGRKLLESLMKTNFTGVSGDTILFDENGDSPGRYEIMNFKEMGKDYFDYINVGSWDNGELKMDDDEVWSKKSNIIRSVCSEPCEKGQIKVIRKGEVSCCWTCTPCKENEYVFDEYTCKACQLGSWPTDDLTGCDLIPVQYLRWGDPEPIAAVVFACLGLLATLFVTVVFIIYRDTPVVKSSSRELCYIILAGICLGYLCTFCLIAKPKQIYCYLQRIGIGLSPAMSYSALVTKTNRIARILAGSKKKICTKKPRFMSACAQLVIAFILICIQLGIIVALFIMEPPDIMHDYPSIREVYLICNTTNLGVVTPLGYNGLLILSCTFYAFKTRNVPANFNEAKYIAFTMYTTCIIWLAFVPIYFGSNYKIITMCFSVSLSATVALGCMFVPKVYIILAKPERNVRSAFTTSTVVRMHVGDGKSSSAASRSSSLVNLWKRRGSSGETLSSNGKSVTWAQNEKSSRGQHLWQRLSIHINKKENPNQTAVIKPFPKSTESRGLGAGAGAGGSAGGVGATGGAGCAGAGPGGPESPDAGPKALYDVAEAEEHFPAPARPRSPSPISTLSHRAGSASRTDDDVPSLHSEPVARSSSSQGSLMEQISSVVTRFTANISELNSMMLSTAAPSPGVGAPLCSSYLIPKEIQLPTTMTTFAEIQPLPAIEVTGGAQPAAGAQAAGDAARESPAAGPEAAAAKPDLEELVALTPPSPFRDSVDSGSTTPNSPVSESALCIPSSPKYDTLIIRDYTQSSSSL
T2 sequence (P41594 21-1180 isoform P41594-2 limits assumed): as above

O=C1c2sc(OCc3ccccc3)nc2CCN1c1ccc(F)cc1F [Compound 12, 5-(2,4-difluorophenyl)-6,7-dihydro-2-(phenylmethoxy)-thiazolo[5,4-c]pyridin-4(5H)-one]
EC50 (human mGluR5 receptor; [1]): 1950 nM
Emax (human mGluR5 receptor): 71%
EC50 (human mGluR5 receptor; [2]): 550 nM
EC50 (human mGluR5a receptor): 182 nM
Emax (human mGluR5a receptor): 67%
melting point: 135 °C

O=C1c2sc(OCc3ccccc3)nc2CCN1Cc1ccc(F)cc1 [Compound 14, 5-[(4-fluorophenyl)methyl]-6,7-dihydro-2-(phenylmethoxy)-thiazolo[5,4-c]pyridin-4(5H)-one]
EC50 (human mGluR5 receptor; [1]): 5130 nM
Emax (human mGluR5 receptor): 88%
EC50 (human mGluR5 receptor; [2]): 4470 nM
EC50 (human mGluR5a receptor): 2240 nM
Emax (human mGluR5a receptor): 52%
melting point: 95.8 to 99 °C

O=C1c2sc(OCc3ccccc3)nc2CCN1Cc1cccc(F)c1 [Compound 15, 5-[(3-fluorophenyl)methyl]-6,7-dihydro-2-(phenylmethoxy)-thiazolo[5,4-c]pyridin-4(5H)-one]
EC50 (human mGluR5 receptor; [1]): 3720 nM
Emax (human mGluR5 receptor): 67%
EC50 (human mGluR5 receptor; [2]): 2570 nM
EC50 (human mGluR5a receptor): 912 nM
Emax (human mGluR5a receptor): 59%
melting point: 80.1 to 82 °C

O=C1c2sc(OCc3ccccc3)nc2CCN1Cc1ccccc1F [Compound 16, 5-[(2-fluorophenyl)methyl]-6,7-dihydro-2-(phenylmethoxy)-thiazolo[5,4-c]pyridin-4(5H)-one]
EC50 (human mGluR5 receptor; [1]): 5370 nM
Emax (human mGluR5 receptor): 88%
EC50 (human mGluR5 receptor; [2]): 3630 nM
EC50 (human mGluR5a receptor): 1230 nM
Emax (human mGluR5a receptor): 56%
melting point: 77.4 to 79.2 °C

O=C1c2sc(OCc3cccc(F)c3)nc2CCN1c1ccc(F)cc1F [Compound 17, 5-(2,4-difluorophenyl)-2-[(3-fluorophenyl)methoxy]-6,7-dihydro-thiazolo[5,4-c]pyridin-4(5H)-one]
EC50 (human mGluR5 receptor; [1]): 692 nM
Emax (human mGluR5 receptor): 82%
EC50 (human mGluR5 receptor; [2]): 741 nM
EC50 (human mGluR5a receptor): 295 nM
Emax (human mGluR5a receptor): 61%
melting point: 121.1 to 122.7 °C

O=C1c2sc(OCc3ccccc3F)nc2CCN1c1ccc(F)cc1F [Compound 18, 5-(2,4-difluorophenyl)-2-[(2-fluorophenyl)methoxy]-6,7-dihydro-thiazolo[5,4-c]pyridin-4(5H)-one]
EC50 (human mGluR5 receptor; [1]): 617 nM
Emax (human mGluR5 receptor): 76%
EC50 (human mGluR5 receptor; [2]): 513 nM
EC50 (human mGluR5a receptor): 427 nM
Emax (human mGluR5a receptor): 72%
melting point: 78.9 to 80.7 °C

O=C1c2sc(OCc3ccc(F)cc3F)nc2CCN1c1ccc(F)cc1F [Compound 23, 5-(2,4-difluorophenyl)-2-[(2,4-difluorophenyl)methoxy]-6,7-dihydro-thiazolo[5,4-c]pyridin-4(5H)-one]
EC50 (human mGluR5 receptor; [1]): 955 nM
Emax (human mGluR5 receptor): 54%
melting point: 104.3 to 107.2 °C

O=C1c2sc(OCc3cccc(F)c3)nc2CCN1c1ccc(C(F)(F)F)cc1 [Compound 26, 2-[(3-fluorophenyl)methoxy]-6,7-dihydro-5-[4-(trifluoromethyl)phenyl]-thiazolo[5,4-c]pyridin-4(5H)-one]
EC50 (human mGluR5 receptor; [1]): 214 nM
Emax (human mGluR5 receptor): 46%
melting point: 130 to 131.5 °C

O=C1c2sc(OCc3cccc(F)c3)nc2CCN1c1cccc(F)c1 [Compound 27, 5-(3-fluorophenyl)-2-[(3-fluorophenyl)methoxy]-6,7-dihydro-thiazolo[5,4-c]pyridin-4(5H)-one]
EC50 (human mGluR5 receptor; [1]): 110 nM
Emax (human mGluR5 receptor): 57%
melting point: 111.3 to 111.9 °C

O=C1c2sc(COc3ccc(Cl)cc3)nc2CCN1c1ccc(F)cc1 [Compound 60, 2-[(4-chlorophenoxy)methyl]-5-(4-fluorophenyl)-6,7-dihydro-thiazolo[5,4-c]pyridin-4(5H)-one]
EC50 (human mGluR5 receptor; [1]): > 30200 nM
Emax (human mGluR5 receptor): 28%
melting point: 186.9 °C

O=C1c2sc(OCc3cc(F)cc(F)c3)nc2CCN1c1ccc(F)cc1F [Compound 73, 5-(2,4-difluorophenyl)-2-[(3,5-difluorophenyl)methoxy]-6,7-dihydro-thiazolo[5,4-c]pyridin-4(5H)-one]
EC50 (human mGluR5a receptor): > 30200 nM
Emax (human mGluR5a receptor): 16%
melting point: 127 to 130.5 °C

O=C1c2sc(OCc3ccc(F)c(F)c3)nc2CCN1c1ccc(F)cc1F [Compound 74, 5-(2,4-difluorophenyl)-2-[(3,4-difluorophenyl)methoxy]-6,7-dihydro-thiazolo[5,4-c]pyridin-4(5H)-one]
EC50 (human mGluR5 receptor; [1]): > 30200 nM
Emax (human mGluR5 receptor): 32%
melting point: 136.9 to 137.2 °C

N#Cc1ccc(COc2nc3c(s2)C(=O)N(c2ccc(F)cc2F)CC3)cc1 [Compound 75, 4-[[[5-(2,4-difluorophenyl)-4,5,6,7-tetrahydro-4-oxothiazolo[5,4-c]pyridin-2-yl]oxy]methyl]-benzonitrile]
EC50 (human mGluR5 receptor; [1]): > 30200 nM
Emax (human mGluR5 receptor): 19%
melting point: 180.9 to 183.1 °C

N#Cc1ccccc1COc1nc2c(s1)C(=O)N(c1ccc(F)cc1F)CC2 [Compound 76, 2-[[[5-(2,4-difluorophenyl)-4,5,6,7-tetrahydro-4-oxothiazolo[5,4-c]pyridin-2-yl]oxy]methyl]-benzonitrile]
EC50 (human mGluR5 receptor; [1]): > 30200 nM
Emax (human mGluR5 receptor): 19%
melting point: 166.1 to 168.3 °C

O=C1c2sc(OCc3ccc(C(F)(F)F)cc3)nc2CCN1c1ccc(F)cc1F [Compound 78, 5-(2,4-difluorophenyl)-6,7-dihydro-2-[[4-(trifluoromethyl)phenyl]methoxy]-thiazolo[5,4-c]pyridin-4(5H)-one]
EC50 (human mGluR5 receptor; [1]): > 30200 nM
Emax (human mGluR5 receptor): 27%
melting point: > 280 °C

COc1ccccc1COc1nc2c(s1)C(=O)N(c1ccc(F)cc1F)CC2 [Compound 79, 5-(2,4-difluorophenyl)-6,7-dihydro-2-[(2-methoxyphenyl)methoxy]-thiazolo[5,4-c]pyridin-4(5H)-one]
EC50 (human mGluR5 receptor; [1]): > 30200 nM
Emax (human mGluR5 receptor): 21%
melting point: > 280 °C

O=C1c2sc(OCc3ccccc3C(F)(F)F)nc2CCN1c1ccc(F)cc1F [Compound 81, 5-(2,4-difluorophenyl)-6,7-dihydro-2-[[2-(trifluoromethyl)phenyl]methoxy]-thiazolo[5,4-c]pyridin-4(5H)-one]
EC50 (human mGluR5 receptor; [1]): > 30200 nM
Emax (human mGluR5 receptor): 25%
melting point: > 280 °C
